# Measurements as given in article PMC11202002, “P18: Novel Anticancer Peptide from Induced Tumor-Suppressing Cells Targeting Breast Cancer and Bone Metastasis” (Cancers, 2024).
# Assays:
# PANC198 PDAC cells = assay: MTT-based cell viability assay; details: PANC198 (PAN198); 25 μg/mL
# Procedure: (§1) Using 96-well plates with approximately 2000 cells per well, an MTT-based metabolic activity assay was performed. The cells were treated with agents and incubated for two days. On the fourth day, they were stained with 0.5 mg/mL thiazolyl blue tetrazolium bromide (M5655, Sigma). The optical density, used to assess metabolic activity, was measured at 562 nm. For the EdU-based proliferation activity assay, the cells were seeded in 96-well plates at about 1000 cells per well. A fluorescence-based cell proliferation kit (Click-iT™, EdU Alexa Fluor™ 488 Imaging Kit; Thermo Fisher, Waltham, MA, USA) was used according to the manufacturer’s instructions.
# PANC1 PDAC cells = assay: MTT-based cell viability assay; details: 25 μg/mL
# Procedure: as §1
# [1] = system: TT2 osteosarcoma cell line; assay: MTT-based cell viability assay; details: TT2; 25 μg/mL
# Procedure: as §1
# MCF7 cells = assay: MTT-based cell viability assay; design: species or system human; details: 5, 10, 15, and 25 µg/mL of P18
# Procedure: as §1
# MDA-MB-436 cells [2] = assay: MTT-based cell viability assay; design: species or system human
# Procedure: as §1
# MDA-MB-231 cells [3] = assay: MTT-based cell viability assay; design: species or system human
# Procedure: as §1
# [4] = system: human triple-negative breast cancer tissue; assay: Ex vivo cancer tissue assay; format: cell-based; details: 25 µg/mL of P18; four days (96 h); n = 6
# Procedure: The usage of human triple-negative breast cancer tissue was approved by the Indiana University Institutional Review Board (1911155674), and the tissues were received from the Indiana University Simon Comprehensive Cancer Center Tissue Procurement Core. Freshly isolated breast cancer tissue (~10 mg) was manually fragmented with a scalpel into small pieces (0.5~0.8 mm in length), which were grown in DMEM with 10% FBS and antibiotics for a day. […] The culture medium, consisting of these agents, was applied for 4 days, and a change in the fragment size was determined.
# [5] = system: MDA-MB-436 breast cancer cells; assay: Western blot analysis; format: cell-based, human; details: 25 µg/mL
# Procedure: (§2) Cells were lysed using a RIPA lysis buffer (sc-24948, Santa Cruz Biotech, Dallas, TX, USA) containing protease inhibitors (PIA32963, Thermo Fisher) and phosphatase inhibitors (2006643, Cal-biochem, Billerica, MA, USA). The proteins were separated on 10–15% SDS gels (Bio-Rad Laboratories, Hercules, CA, USA) and transferred to a polyvinylidene difluoride membrane (IPVH00010, Millipore, Billerica, MA, USA). The membrane was incubated with primary antibodies, followed by incubation with secondary antibodies (7074S/7076S, Cell Signaling, Danvers, MA, USA). The antibodies used included those against Snail, p-Src, Src, cleaved caspase 3, caspase 3, RANKL, Cdc42, Col1 and RhoA (Cell Signaling), ALP (Santa Cruz Biotech), OCN (Abcam, Boston, MA, USA), with β-actin (Sigma) as a control. The protein levels were detected using SuperSignal West Femto Maximum Sensitivity Substrate (PI34096, Thermo Fisher) and a luminescent image analyzer (LAS-3000, Fuji Film, Tokyo, Japan).
# [6] = system: MDA-MB-231 breast cancer cells; assay: Western blot analysis; format: cell-based, human; details: 25 µg/mL
# Procedure: as §2
# [7] = system: RANKL-stimulated osteoclasts; assay: Osteoclast differentiation and maturation; format: cell-based; details: 25 μg/mL
# [8] = system: 4T1.2 mammary tumor cells; assay: Scratch-based motility assay; format: cell-based, mouse; details: 25 μg/mL
# Procedure: To evaluate the two-dimensional motility of cancer cells, a wound-healing scratch assay was utilized, and the change in the scratch area was determined. On day 1, ~3 × 10^5 cells were seeded in 12-well plates, and, on day 2, a scratch was made on the cell layer, with the tip of a plastic pipette. Using a light microscope (40×), cell-free zones were imaged after 0 h and 24 h, and the alteration in their areas was quantified by Image J (Version 1.54 f).
# MDA-MB-436 cells [9] = assay: EdU-based proliferation assay; format: cell-based, human; details: 25 µg/mL
# Procedure: as §1
# MDA-MB-231 cells [10] = assay: EdU-based proliferation assay; format: cell-based, human; details: 25 µg/mL
# Procedure: as §1
# Cdc42 = assay: FRET-based GTPase activity assay; format: cell-based; details: MDA-MB-231 cells; 25 µg/mL for 3 h
# Text: (§3) The three FRET GTPase biosensors were utilized to monitor the activities of Rac1, Cdc42, and RhoA in response to ACPs. GTPase activity was estimated based on the emission ratio of yellow fluorescent protein (YFP) to cyan fluorescent protein (CFP), using a Nikon Ti-E inverted microscope with an EMCCD camera (Photometrics, Tucson, AZ, USA), a filter wheel controller (Sutter Instruments, Novato, CA, USA), and a Nikon Perfect Focus System. To reduce photobleaching, an Intensilight fluorescence illuminator (Nikon, Tokyo, Japan) was employed with a neutral-density 32 filter (3% transmittance). The images were captured with a 40× (0.75 numerical aperture) objective, and they were scaled utilizing the color bar, as previously published.
# (§4) This study next investigated the role of P18 in regulating the activity of Rho family GTPases. MDA-MB-231 breast cancer cells were transfected with Rac1, Cdc42, or RhoA biosensors and treated with P18 at a concentration of 25 µg/mL for 3 h. The GTPase activity was assessed by measuring the emission ratio of the biosensor within individual live cells.
# RhoA = assay: FRET-based GTPase activity assay; format: cell-based; details: MDA-MB-231 cells; 25 µg/mL for 3 h
# Text: as §3, §4
# Rac1 = assay: FRET-based GTPase activity assay; format: cell-based; details: MDA-MB-231 cells; 25 µg/mL for 3 h
# Text: as §3, §4
# [11] = system: femurs inoculated with 4T1.2 mammary tumor cells; assay: Bone microenvironment assay (ex vivo bone culture, Western blot); format: cell-based, mouse; details: 25 μg/mL P18 daily; 2 weeks
# Procedure: as §2
# Femora were collected from […] female mice (~10 weeks old), and the surrounding connective tissues were removed. The femora were cut in half at the mid-diaphysis, and a hole was created at the end of the sample using a 25-gauge needle. 4T1.2 mammary tumor cells (2.5 × 10^5 cells) were resuspended in 10 μL of culture medium and injected into the bone marrow cavity through the open end of the diaphysis. […]
# [12] = relative to cn = 1.00, peptide concentration not given, treated two days, OD 562 nm
sequence,measurement,setting,value
TDYMVGSYGPR [P18],MTT-based viability,PANC198 PDAC cells,significantly decreased
same,MTT-based viability,PANC1 PDAC cells,significantly decreased
same,MTT-based viability,[1],significantly decreased
same,decrease in MTT viability,MCF7 cells,dose-dependent
same,decrease in MTT viability,"MDA-MB-436 cells [2]; 5, 10, 15, and 25 µg/mL of P18",dose-dependent
same,MTT-based relative viability,MDA-MB-436 cells [2]; [12],0.82
same,decrease in MTT viability,"MDA-MB-231 cells [3]; 5, 10, 15, and 25 µg/mL of P18",dose-dependent
same,MTT-based relative viability,MDA-MB-231 cells [3]; [12],0.86
same,size of ex vivo breast tissue fragments,[4],significant decrease in the size
same,levels of RhoA and Cdc42,[5],slight upregulation
same,levels of cleaved caspase 3,[5],increasing
same,levels of p-Src and Snail,[5],downregulated
same,levels of RhoA and Cdc42,[6],slight upregulation
same,levels of cleaved caspase 3,[6],increasing
same,levels of p-Src and Snail,[6],downregulated
same,differentiation and maturation of RANKL-stimulated osteoclasts,[7],inhibited
same,number of multi-nucleated TRAP-positive osteoclasts (more than three nuclei),[7],significantly reduced
same,scratch-based mobility,[8],consistently reduced
same,EdU-based proliferation,MDA-MB-436 cells [9],inhibited
same,EdU-based proliferation,MDA-MB-231 cells [10],decreased
same,Cdc42 GTPase activity (FRET biosensor emission ratio),Cdc42,significant decrease
same,RhoA GTPase activity (FRET biosensor emission ratio),RhoA,significant decrease
same,Rac1 GTPase activity (FRET biosensor emission ratio),Rac1,no significant change
same,"levels of c-Cas 3, Cdc42, and alkaline phosphatase (ALP)",[11],upregulation
